Experimental data taken from patent US7763621B2, “Vitronectin receptor antagonist derivatives, method for preparing same, use thereof as medicines and pharmaceutical compositions containing same” (Galapagos SAS, priority 2002, dated 2010).

The compounds below were run against human αVβ3 receptor (Homo sapiens, UniProt P05106+P06756) (assay: Kistrin/Vitronectin receptor (αVβ3) ELISA test). Settings: co-incubated 3 hours at ambient temperature, read-out: K/VnR IC50.
Format: binding
Procedure: Pharmacological Test: Kistrin/Vitronectin Receptor (αVβ3) ELISA Test
96-well MaxiSorp plates are coated overnight at […] with 100 μl of Kistrin at 1 μg/ml (dilution in coating buffer: 0.05M (carbonate)/NaOH pH 9.6. The next day, the wells are emptied and the ligands (kistrin) are then fixed (fixation buffers: PBS containing 0.5% BSA (pH=7.4)) for 1 hour at ambient temperature under gentle stirring of 125 rpm. The wells are washed six times (washing buffer: PBS containing 0.05% Tween 20 (pH 7.7) then the following is added per well and in this order:
40 μl of incubation buffer
10 μl of the dilution of the product to be tested (the products are diluted in a 50:50 DMSO/water mixture)
50 μl of human αVβ3 receptor (cf Pytella et al. Methods Enzymol. (1987) 144 (Dilution in incubation buffer, adapted according to the batch of receptor and according to the ligand). The ligand, the αVβ3 receptor and the products to be studied are co-incubated for 3 hours at ambient temperature with gentle stirring of 125 rpm.
The wells are again washed six times, then incubated for 2 hours at ambient temperature with gentle stirring of 125 rpm, in the presence of 100 μl of anti-receptor antibody coupled to a peroxidase (The 4B12-HRP antibody is diluted in incubation buffer (50 mM TRIS pH 7.4; 0.5% BSA; 0.05% Tween 20; 1 mM MnCl2; 50 μM CaCl2; 50 μM MgCl2; 100 mM NaCl). The dilution is to be adapted according to the batch of receptor.
The wells are then washed six times before measurement of the ligand-receptor bond is carried out using a peroxidase developer kit (TBM Microwell Peroxidase Substrate System Kirkegaard; Ref cat 50-76-00).
This kit contains a flask A of substrate (3,3′,5,5′-tetramethylebenzidine at 0.4 g/l) and a flask B (0.02% H2O2 in Citrate/Citric acid). Extemporaneously, one volume of A is mixed with one volume of B, then the reaction mixture is distributed at a rate of 100 μl/well.
The enzymatic reaction develops between 6 to 10 minutes for Kistrin/αVβ3 then its development is stopped by the addition of 100 μl of 1M phosphoric acid. The optical density is determined at 450 nm.
Expression of the Results
The following curve is plotted: the bond percentage as a function of the logarithm of each concentration of the tested product. For each product the IC50 is determined according to the following formula: IC50=(B0+Bmin)/2
B0=Maximum bond in the absence of any product
Bmin=Minimum bond in the presence of the highest concentration of the product.

Sequence of human αVβ3 receptor (P06756 31-889 limits assumed): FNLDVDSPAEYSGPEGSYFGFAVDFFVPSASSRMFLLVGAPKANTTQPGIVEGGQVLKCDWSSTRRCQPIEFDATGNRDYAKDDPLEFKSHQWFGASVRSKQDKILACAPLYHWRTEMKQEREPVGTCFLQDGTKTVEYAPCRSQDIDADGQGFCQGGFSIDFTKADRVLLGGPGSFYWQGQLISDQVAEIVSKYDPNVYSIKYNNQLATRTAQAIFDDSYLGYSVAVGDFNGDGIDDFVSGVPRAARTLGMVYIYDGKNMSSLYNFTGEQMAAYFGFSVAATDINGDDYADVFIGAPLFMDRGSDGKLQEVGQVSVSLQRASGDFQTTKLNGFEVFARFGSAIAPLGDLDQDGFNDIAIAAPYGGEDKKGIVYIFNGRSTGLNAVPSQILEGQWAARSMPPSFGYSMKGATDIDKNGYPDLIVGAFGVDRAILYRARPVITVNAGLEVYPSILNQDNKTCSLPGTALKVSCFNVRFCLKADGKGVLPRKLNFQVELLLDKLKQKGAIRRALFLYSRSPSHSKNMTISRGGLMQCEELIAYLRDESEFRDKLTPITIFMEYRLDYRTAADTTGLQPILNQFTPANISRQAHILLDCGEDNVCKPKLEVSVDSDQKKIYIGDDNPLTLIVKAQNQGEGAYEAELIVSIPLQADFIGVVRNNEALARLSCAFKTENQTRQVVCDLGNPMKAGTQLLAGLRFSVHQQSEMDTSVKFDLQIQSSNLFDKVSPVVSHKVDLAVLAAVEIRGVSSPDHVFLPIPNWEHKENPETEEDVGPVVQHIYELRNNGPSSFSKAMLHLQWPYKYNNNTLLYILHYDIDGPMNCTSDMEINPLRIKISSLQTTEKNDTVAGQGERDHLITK
Sequence of human αVβ3 receptor (P06756 891-1048 partner limits assumed): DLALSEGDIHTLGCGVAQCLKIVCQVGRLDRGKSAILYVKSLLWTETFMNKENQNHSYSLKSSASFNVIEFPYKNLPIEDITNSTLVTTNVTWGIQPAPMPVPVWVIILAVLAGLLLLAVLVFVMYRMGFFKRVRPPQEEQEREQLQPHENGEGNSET
Sequence of human αVβ3 receptor (P05106 27-788): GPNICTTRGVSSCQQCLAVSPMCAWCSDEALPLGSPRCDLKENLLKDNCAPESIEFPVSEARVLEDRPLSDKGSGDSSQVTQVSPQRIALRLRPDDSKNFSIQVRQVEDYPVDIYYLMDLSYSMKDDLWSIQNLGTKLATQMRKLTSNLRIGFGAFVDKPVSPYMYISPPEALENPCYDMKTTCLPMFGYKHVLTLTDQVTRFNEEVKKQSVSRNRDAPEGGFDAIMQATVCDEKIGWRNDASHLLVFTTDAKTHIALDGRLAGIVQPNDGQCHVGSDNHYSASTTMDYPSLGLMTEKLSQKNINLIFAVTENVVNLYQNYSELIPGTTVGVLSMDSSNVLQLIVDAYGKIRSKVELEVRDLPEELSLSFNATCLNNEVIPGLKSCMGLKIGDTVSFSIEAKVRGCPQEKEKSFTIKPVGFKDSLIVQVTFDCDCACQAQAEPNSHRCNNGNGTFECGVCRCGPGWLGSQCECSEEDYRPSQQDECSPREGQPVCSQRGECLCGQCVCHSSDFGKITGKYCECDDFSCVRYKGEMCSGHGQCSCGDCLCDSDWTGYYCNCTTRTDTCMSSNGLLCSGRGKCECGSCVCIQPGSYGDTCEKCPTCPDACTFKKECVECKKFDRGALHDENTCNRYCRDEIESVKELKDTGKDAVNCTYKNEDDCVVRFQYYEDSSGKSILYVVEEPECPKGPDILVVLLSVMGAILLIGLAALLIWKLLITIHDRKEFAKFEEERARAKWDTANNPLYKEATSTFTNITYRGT

IC50	Compound
3 nM	CCc1c(NCC(NC(=O)OCc2ccccc2)C(=O)O)ncnc1N1CCC(c2ccc3c(n2)NCCC3)CC1 (racemic) [Example 1, 3-[[5-ethyl-6-[4-(1,2,3,4-tetrahydro-1,8-naphthyridin-7-yl)-1-piperidinyl]-4-pyrimidinyl]amino]-N-[(phenylmethoxy)carbonyl]alanine, bis(trifluoroacetate)]
160 nM	CCc1c(NCC(NC(=O)OCc2ccccc2)C(=O)O)ncnc1N1CCC(C(=O)N=C2NCCCN2)CC1 (racemic) [Example 2, 3-[[5-ethyl-6-[4-[(1,2,3,4,5,6-hexahydro-2-pyrimidinyl)iminocarbonyl]-1-piperidinyl]-4-pyrimidinyl]amino]-N-[(phenylmethoxy)carbonyl]alanine]
3.1 nM	Cc1c(NCC(NC(=O)OCc2ccccc2)C(=O)O)ncnc1N1CCC(c2ccc3c(n2)NCCC3)CC1 (racemic) [Example 3, 3-[[6-[4-(1,2,3,4-tetrahydro-1,8-naphthyridin-7-yl)-1-piperidinyl]-5-methyl-4-pyrimidinyl]amino]-N-[(phenylmethoxy)carbonyl]alanine]
5.1 nM	Cc1c(NCC(NC(=O)OCc2ccccc2)C(=O)O)ncnc1N1CCC(C(=O)N=C2NCCCN2)CC1 (racemic) [Example 4, 3-[[6-[4-[(1,2,3,4,5,6-hexahydro-2-pyrimidinyl)iminocarbonyl]-1-piperidinyl]-5-methyl-4-pyrimidinyl]amino]-N-[(phenylmethoxy)carbonyl]alanine]

These compounds were tested on TPXT rats (assay: Hypercalcemia induced by the parathyroid hormone (PTH) in a thyroparathyroidectomized (TPXT) rat model). Settings: doses ranging from twice 1 mg/kg to twice 10 mg/kg by subcutaneous route in the rat, at time 0 and 3 hours; serum Ca at 6 hours.
Format: in vivo
Procedure: Hypercalcemia induced by the parathyroid hormone (PTH) in a thyroparathyroidectomized (TPXT) rat model
Stimulation of bone resorption is induced in TPXT rats by perfusion of PTH and the variations of bone resorption are monitored by the concentration of calcium in the serum.
Male Sprague Dawley rats weighing 150-200 g are thyroparathyroidectomized. The rats are subjected to a standard diet containing 7 g Ca/kg (UAR) and Volvic water. The effectiveness of the thyroparathyroidectomy is tested by measuring the concentrations of Ca in the serum 8 days after the operation in animals which have been starved since the previous day. The rats are considered as thyroparathyroidectomized when the Ca levels in the serum are less than 80 mg/l. The PTH (1-34) of the rat (Bachem) is dissolved in 0.15M of NaCl Cys.HCl 2% and delivered by osmotic minipumps (ALZET 2001D) at a dose of 200 pmol/kg/h. The minipumps are introduced into the intraperitoneal cavities under anaesthesia (ketamine—75 mg/kg and acepromazine—2.5 mg/kg) of the TPXT rats which have been starved since the previous day. The control TPXT rats receive the minipumps filled with the PTH vehicle.
Either the product to be tested or the vehicle (controls and rats treated with the PTH) are administered twice by sub-cutaneous route (2 ml/kg of body weight) at time 0 and 3 hours after the start of the infusion of PTH. The test is continued for the next 6 hours. At the end of the treatment, all the blood is collected after decapitation. The blood samples are centrifuged at 3000 rpm for 15 minutes (CR422 Jouan) in order to obtain the serum.
The total concentrations of Ca in the serum are measured by colorimetry (Ciba-Corning) using an IEMS Labsystems microplate reading system, at 540 nm.
The difference between the average calcemia values of the treated rats and the control groups is analyzed by variance and by the Dunnett test.
The activity of a product is calculated by the following formula: […]

Compound	activity against PTH-induced hypercalcemia (total Ca in the serum)
Cc1c(NC[C@H](NC(=O)OCc2ccccc2)C(=O)O)ncnc1N1CCC(c2ccc3c(n2)NCCC3)CC1 [Example 6, 3-[[5-methyl-6-[4-(1,2,3,4-tetrahydro-1,8-naphthyridin-7-yl)-1-piperidinyl]-4-pyrimidinyl]amino]-N-[(phenylmethoxy)carbonyl]alanine, bis(trifluoroacetate)]	active
CCc1c(NC[C@H](NC(=O)OCc2ccccc2)C(=O)O)ncnc1N1CCC(c2ccc3c(n2)NCCC3)CC1 [Example 9, 3-[[5-ethyl-6-[4-(1,2,3,4-tetrahydro-1,8-naphthyridin-7-yl)-1-piperidinyl]-4-pyrimidinyl]amino]-N-[(phenylmethoxy)carbonyl]alanine, bis(trifluoroacetate)]	active
CCc1c(NC[C@H](NC(=O)OCc2ccccc2)C(=O)OC(C)C)ncnc1N1CCC(c2ccc3c(n2)NCCC3)CC1 [Example 13, isopropyl 3-[[6-[4-(1,2,3,4-tetrahydro-1,8-naphthyridin-7-yl)-1-piperidinyl]-5-ethyl-4-pyrimidinyl]amino]-N-[(phenylmethoxy)carbonyl]alaninate]	active
